{
  "source": "patent US8236510B2",
  "about": "“Protein showing enhanced expression in cancer cells” (Agensys, Inc., priority 1999, dated 2012)",
  "key": {"3T3-101P3A11 tumors": {"system": "3T3-101P3A11 tumors", "assay": "Subcutaneous growth of 3T3-101P3A11 tumors in SCID mice", "assay_type": "in vivo", "procedure": "(2) Regulated expression under control of an inducible vector system, such as ecdysone, tet, etc., can be used provided such promoters are compatible with the host cell systems. […] FIG. 21 compares subcutaneous growth of control 3T3-neo and 3T3-101P3A11 cells. One million cells stably expressing neo or 101P3A11 were injected subcutaneously in SCID mice along with matrigel. Tumor volume was evaluated by caliper measurements. […] Additionally, SCID mice were implanted with the same 3T3-101P3A11 cells orthotopically in the prostate to determine if 101P3A11 has an effect on local growth in the prostate or on the ability of the cells to metastasize, specifically to lungs or lymph nodes. […] In an analogous manner, cells can be implanted orthotopically in the bladder, colon or kidney. (Saffran, D., et al., PNAS 10:1073-1078; Fu, X., et al., Int. J. Cancer, 1991, 49: p. 938-939; Chang, S., et al., Anticancer Res., 1997, 17: p. 3239-3242; Peralta, E. A., et al., J. Urol., 1999, 162: p. 1806-1811). The tumor enhancing effect of 101P3A11 was also observed when 101P3A11 is expressed in prostate cancer cells such as PC3 and introduced into the prostate of SCID mice (Figure M11). A 2.5 fold increase in tumor weight is observed in tumors expressing 101P3A11 relative to control cells.\nFurthermore, these assays is useful to confirm the anti-101P3A11 inhibitory effects of candidate therapeutic compositions, such as for example, 101P3A11 antibodies or intrabodies, and 101P3A11 antisense molecules or ribozymes, or 101P3A11 directed small molecules. In FIG. 22, we depict the effect of a small molecule, pertussis toxin (PTX) on tumor formation by 3T3-101P3A11 cells. In this experiment, SCID mice were injected with 3T3-101P3A11 alone or in conjunction with PTX. Each mouse was given 5 doses of PTX at 3-4 days interval. Tumor volume was evaluated by caliper measurements. […] Similarly, treatment with the G-protein inhibitor suramin inhibits the growth of 3T3-101P3A11 tumors (Figure M13)."}, "[1]": {"system": "cAMP accumulation in PC3-101P3A11 cells", "assay": "cAMP accumulation in PC3 and PC3-101P3A11 cells (enzyme immunoassay)", "assay_type": "cell-based, human", "procedure": "Olfactory receptors are known to regulate biological responses by activating adenylate cyclase. In order to confirm that 101P3A11 functions as a GPCR and mediates the activation of adenylate cyclase, cAMP accumulation in PC3 and PC3-101P3A11 cells were compared (FIG. 32). Control PC3 and PC3-101P3A11 cells were grown in a low concentration of fetal bovine serum (FBS) for 14 hrs in the presence or absence of pertussis toxin (PTX). The cells were stimulated with 0.1% or 10% FBS, washed in PBS and lysed using a lysis buffer provided by Amersham Pharmacia. Intracellular concentration of cAMP was measured using a commercially available enzyme immunoassay (EIA) according to the manufacturer's recommendations (Amersham Pharmacia). Each assay was performed in duplicate. Calculations of cAMP concentrations were based on OD450 of the standard curve. Expression of 101P3A11 induced a four-fold increase in cAMP accumulation in the absence of stimulation. Treatment with 10% FBS further enhanced cAMP accumulation in PC3-101P3A11 cells to nearly seven-fold over control PC3-neo cells. 101P3A11 mediated cAMP accumulation was inhibited by PTX.\nIn order to confirm that anti-101P3A11 pAb has a detectable effect on cAMP accumulation, PC3 and PC3-101P3A11 cells were grown in 0.1% FBS and treated with anti-101P3A11 pAb. Cells were analyzed for cAMP content as described in FIG. 32. […]"}, "PC3-101P3A11 cells": {"system": "PC3-101P3A11 cells", "assay": "Proliferation of PC3-101P3A11 and PC3-neo cells", "assay_type": "cell-based, human", "details": "PC3-101P3A11 cells, dose dependent", "procedure": "Since adenylate cyclase activity modulates intracellular levels of cAMP and induce downstream signaling events such as activation of protein kinase A, calcium and ERK MAPK signaling (Pierce K. L., et al, Oncogene. 2001, 20: 1532), we determined that PTX, an inhibitor of adenylate cyclase signaling, prevents 101P3A11-mediated ERK phosphorylation along with inhibiting cAMP accumulation (FIG. 33 and FIG. 34). PC3-neo and PC3-101P3A11 cells were grown overnight in 0.1% FBS in media alone or in the presence of pertussis toxin (PTX). Cells were stimulated with 0.1% or 10% FBS (FIG. 33) or 10% FBS, EGF or GRP (FIG. 34). Cells were lysed and analyzed by Western blotting using anti-Phospho-ERK mAb. Expression of 101P3A11 mediated ERK phosphorylation by 10% FBS in PC3 cells, which was inhibited by PTX (FIG. 33 and FIG. 34).\nGPCR transmit their signal by activating trimeric G proteins. Once GPCRs are activated, the associated Ga subunit binds GTP, dissociates from the receptor and participates in downstream signaling events (Schild, D., and Restrepo, D. Physiol Rev. 1998, 78:429-66). In order to determine that inhibition of Ga subunits has an effect on 101P3A11 mediated cell growth, the effect of two Ga inhibitors on the proliferation of 3T3-101P3A11 cells was investigated. Control 3T3 and 3T3-101P3A11 cells were grown in the presence or absence of suramin or its derivative NF 449 (Sigma). Cells were analyzed for proliferation 72 hours later (FIG. 35). The experiment was performed in triplicate. […] This response was 101P3A11 specific as suramin and NF449 had no effect on the proliferation of control 3T3 cells. Similarly, inhibition of G protein activation by suramin and NF449 in PC3 cells inhibits the proliferation of PC3-101P3A11 cells grown in 5% FBS (Figure M4). […] This ERK phosohorylation and activation was inhibited by suramin and NF449 in PC3-101P3A11 and 3T3-101P3A11 cells. ERK phosphorylation was inhibited in a dose dependent manner in PC3-101P3A11 cells treated with suramin. […]"}},
  "note": "Where two headings read alike, the source gives them in different places.",
  "data": [
    {"substance": "pertussis toxin [PTX]", "values": [
      {"measurement": "inhibition of tumor growth", "setting": "3T3-101P3A11 tumors; 5 doses at 3-4 days interval, tumor volume by caliper", "result": "inhibits tumor growth in a dose dependent manner"},
      {"measurement": "inhibition of tumor growth", "setting": "3T3-101P3A11 tumors; 5 doses at 3-4 days interval, tumor volume by caliper, listed as Pertussis toxin", "result": "inhibit"},
      {"measurement": "inhibition of tumor growth", "setting": "3T3-101P3A11 tumors; 5 time per week, after 25 days", "result": 70, "unit": "%"},
      {"measurement": "inhibition of 101P3A11 mediated cAMP accumulation", "setting": "[1]", "result": "partially inhibited"},
      {"measurement": "inhibition of 101P3A11 mediated cAMP accumulation", "setting": "[1]; listed as pertussis toxin", "result": "inhibited"},
      {"measurement": "inhibition of proliferation", "setting": "PC3-101P3A11 cells", "result": "inhibited"}
    ]}
  ]
}
